Test results reported in ChEMBL document CHEMBL4706690, “Identification of BR102910 as a selective fibroblast activation protein (FAP) inhibitor” (Bioorg Med Chem Lett, 2021).
The source made the active and inactive calls. No cut-off for these calls is given here.

Experiments:
[1] = target: Prolyl endopeptidase FAP (Homo sapiens) (UniProt Q12884); assay: Inhibition of FAP (unknown origin) at 1 uM TR-FRET assay relative to control
[2] = target: Dipeptidyl peptidase 4 (Homo sapiens, UniProt P27487); assay: Inhibition of DPP4 (unknown origin) using AMC substrate by fluorometric assay
Dipeptidyl peptidase 4, sequence (P27487 whole entry): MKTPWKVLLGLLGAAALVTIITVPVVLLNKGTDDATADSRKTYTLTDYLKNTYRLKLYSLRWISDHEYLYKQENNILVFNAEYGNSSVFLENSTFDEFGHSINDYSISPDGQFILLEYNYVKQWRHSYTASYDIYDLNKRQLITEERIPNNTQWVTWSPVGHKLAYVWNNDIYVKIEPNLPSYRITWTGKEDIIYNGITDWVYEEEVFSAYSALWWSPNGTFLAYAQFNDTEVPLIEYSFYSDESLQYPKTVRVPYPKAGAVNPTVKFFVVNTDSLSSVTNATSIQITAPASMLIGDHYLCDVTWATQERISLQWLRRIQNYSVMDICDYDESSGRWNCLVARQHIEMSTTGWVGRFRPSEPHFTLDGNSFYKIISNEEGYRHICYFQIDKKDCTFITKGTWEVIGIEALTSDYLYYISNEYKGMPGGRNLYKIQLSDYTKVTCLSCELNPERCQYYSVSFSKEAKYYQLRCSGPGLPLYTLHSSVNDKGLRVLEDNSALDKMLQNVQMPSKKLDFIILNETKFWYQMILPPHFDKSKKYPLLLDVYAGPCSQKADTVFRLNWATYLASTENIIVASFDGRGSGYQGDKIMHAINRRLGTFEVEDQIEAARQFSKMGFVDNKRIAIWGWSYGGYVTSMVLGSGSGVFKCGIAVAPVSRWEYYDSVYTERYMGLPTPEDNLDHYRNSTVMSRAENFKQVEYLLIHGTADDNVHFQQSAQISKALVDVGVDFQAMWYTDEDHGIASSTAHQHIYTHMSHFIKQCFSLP

[3] = target: T1, Prolyl endopeptidase FAP (Homo sapiens, UniProt Q12884); assay: Inhibition of FAP (unknown origin) using AMC substrate by fluorometric assay
T1 sequence (Q12884 whole entry): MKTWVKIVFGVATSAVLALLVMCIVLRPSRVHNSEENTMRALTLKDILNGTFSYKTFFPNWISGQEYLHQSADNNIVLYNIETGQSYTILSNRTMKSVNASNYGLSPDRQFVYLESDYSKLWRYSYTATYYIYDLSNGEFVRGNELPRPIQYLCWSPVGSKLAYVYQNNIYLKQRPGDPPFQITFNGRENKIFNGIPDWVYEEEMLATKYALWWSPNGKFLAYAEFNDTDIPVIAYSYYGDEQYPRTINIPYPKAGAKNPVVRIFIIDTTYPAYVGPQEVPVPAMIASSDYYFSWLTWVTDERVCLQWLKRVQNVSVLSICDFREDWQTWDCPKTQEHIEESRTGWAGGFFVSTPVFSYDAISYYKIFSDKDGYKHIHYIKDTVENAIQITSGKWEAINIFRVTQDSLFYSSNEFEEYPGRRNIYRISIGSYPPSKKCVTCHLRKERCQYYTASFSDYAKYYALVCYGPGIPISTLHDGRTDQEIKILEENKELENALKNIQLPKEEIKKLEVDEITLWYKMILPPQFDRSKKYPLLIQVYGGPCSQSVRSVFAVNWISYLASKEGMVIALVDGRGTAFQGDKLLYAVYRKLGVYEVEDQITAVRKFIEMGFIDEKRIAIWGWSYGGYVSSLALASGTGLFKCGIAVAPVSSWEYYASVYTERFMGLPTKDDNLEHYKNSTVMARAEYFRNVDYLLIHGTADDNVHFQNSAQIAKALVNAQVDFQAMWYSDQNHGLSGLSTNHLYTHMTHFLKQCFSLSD

[4] = target: T2, Prolyl endopeptidase (Homo sapiens, UniProt P48147)
T2 sequence (P48147 whole entry): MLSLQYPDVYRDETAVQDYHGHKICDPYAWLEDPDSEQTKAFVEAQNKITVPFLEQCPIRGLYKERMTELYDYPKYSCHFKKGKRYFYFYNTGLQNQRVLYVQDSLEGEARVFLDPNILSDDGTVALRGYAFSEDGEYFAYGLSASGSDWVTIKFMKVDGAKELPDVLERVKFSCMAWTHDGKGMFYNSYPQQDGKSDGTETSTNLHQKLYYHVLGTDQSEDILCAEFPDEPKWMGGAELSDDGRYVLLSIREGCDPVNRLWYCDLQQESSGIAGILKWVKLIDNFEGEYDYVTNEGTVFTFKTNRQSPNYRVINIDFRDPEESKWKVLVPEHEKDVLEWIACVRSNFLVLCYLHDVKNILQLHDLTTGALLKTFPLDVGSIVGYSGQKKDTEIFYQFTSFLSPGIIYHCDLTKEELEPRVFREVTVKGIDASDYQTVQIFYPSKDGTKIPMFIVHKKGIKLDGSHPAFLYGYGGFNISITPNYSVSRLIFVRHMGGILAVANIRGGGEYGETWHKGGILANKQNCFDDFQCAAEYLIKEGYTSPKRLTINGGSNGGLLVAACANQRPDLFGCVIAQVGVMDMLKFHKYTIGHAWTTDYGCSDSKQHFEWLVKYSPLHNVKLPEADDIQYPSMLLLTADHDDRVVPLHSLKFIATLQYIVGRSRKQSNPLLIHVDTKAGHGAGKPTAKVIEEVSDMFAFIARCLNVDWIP
Description: Inhibition of PREP (unknown origin) using AMC substrate by fluorometric assay

[5] = system: Mus musculus; assay: Antidiabetic activity in ob/ob mouse assessed as reduction in plasma glucose level treated single oral dose of compound and recombinant human FGF21 intraperitoneally 60 mins prior to glucose challenge by OGTT; type: functional, organism-based; details: dose 20-50 mg/kg
[6] = species: Mus musculus; details: C57BL/6J, dose 10-30 mg/kg, time hrs <=6
[7] = species: Mus musculus; details: dose 20-50 mg/kg, time hrs <=9
[8] = target: Dipeptidyl peptidase 2 (Homo sapiens, UniProt Q9UHL4); assay: Inhibition of DPP2 (unknown origin) using AMC substrate by fluorometric assay

Compound	inhibition [1]	IC50 [2]	IC50 [3]	IC50 [4]	IC50 [8]	Activity [5]	inhibition [6]	inhibition [7]
N#C[C@@H]1CC(F)(F)CN1C(=O)CNC(=O)c1cccc(-c2ccc(Cl)cc2)n1	80.6%	–	100 nM	–	–	–	–	–
N#C[C@@H]1CC(F)(F)CN1C(=O)CNC(=O)c1csc(Cc2ccccc2Br)n1	93.7%	200 nM	50 nM	–	–	–	–	–
N#C[C@@H]1CC(F)(F)CN1C(=O)CNC(=O)c1coc(-c2ccc(Cl)cc2)n1	88.7%	–	93 nM	4000 nM	–	–	–	–
N#C[C@@H]1CC(F)(F)CN1C(=O)CNC(=O)c1csc(-c2ccc(Cl)cc2)n1	86.7%	–	148 nM	–	–	–	–	–
N#C[C@@H]1CC(F)(F)CN1C(=O)CNC(=O)c1csc(-c2ccc(C(F)(F)F)cc2)n1	99%	> 100000 nM	77 nM	1380 nM	–	–	–	–
N#C[C@@H]1CC(F)(F)CN1C(=O)CNC(=O)c1csc(-c2ccc3occc3c2)n1	83.4%	–	446 nM	10000 nM	–	–	–	–
Cc1ccc(Cc2nc(C(=O)NCC(=O)N3CC(F)(F)C[C@H]3C#N)cs2)cc1	97.8%	68800 nM	37 nM	–	–	–	–	–
N#C[C@@H]1CC(F)(F)CN1C(=O)CNC(=O)c1c[nH]c(-c2ccc(Cl)cc2)c1	57.8%	–	550 nM	3620 nM	–	–	–	–
N#C[C@@H]1CC(F)(F)CN1C(=O)CNC(=O)c1csc(-c2ccc(F)cc2)n1	90.5%	–	87 nM	1600 nM	–	–	–	–
Cn1cc(C(=O)NCC(=O)N2CC(F)(F)C[C@H]2C#N)cc1-c1ccc(Cl)cc1	85.3%	–	104 nM	–	–	–	–	–
N#C[C@@H]1CC(F)(F)CN1C(=O)CNC(=O)c1csc(Cc2ccccc2I)n1	90.6%	> 100000 nM	78 nM	–	–	–	–	–
N#C[C@@H]1CC(F)(F)CN1C(=O)CNC(=O)c1csc(-c2ccc(-c3ccccc3)cc2)n1	84.8%	–	414 nM	10000 nM	–	–	–	–
N#C[C@@H]1CC(F)(F)CN1C(=O)CNC(=O)c1csc(-c2ccc(Cl)cc2C(F)(F)F)n1	94.6%	> 100000 nM	60 nM	–	–	–	–	–
N#C[C@@H]1CC(F)(F)CN1C(=O)CNC(=O)c1csc(CSc2ccc(Cl)c(Cl)c2)n1	–	> 100000 nM	119 nM	–	–	–	–	–
N#C[C@@H]1CC(F)(F)CN1C(=O)CNC(=O)c1csc(Cc2ccc(-c3ccc(Cl)cc3)cc2)n1	93.8%	> 100000 nM	145 nM	–	–	–	–	–
C[S+]([O-])c1ccc(Cc2nc(C(=O)NCC(=O)N3CC(F)(F)C[C@H]3C#N)cs2)cc1 (stereo partly specified)	95%	4120 nM	390 nM	1200 nM	–	–	–	–
COc1ccc(-c2nc(C(=O)NCC(=O)N3CC(F)(F)C[C@H]3C#N)cs2)cc1	76.5%	–	214 nM	1180 nM	–	–	–	–
N#C[C@@H]1CC(F)(F)CN1C(=O)CNC(=O)c1csc(Cc2ccc(F)c(F)c2)n1	95.4%	> 100000 nM	47 nM	–	–	–	–	–
N#C[C@@H]1CC(F)(F)CN1C(=O)CNC(=O)c1csc(Cc2cc(Cl)ccc2Cl)n1	94.5%	> 100000 nM	55 nM	–	–	–	–	–
N#C[C@@H]1CC(F)(F)CN1C(=O)CNC(=O)c1cnc(-c2ccc(Cl)cc2)cn1	64%	–	795 nM	–	–	–	–	–
N#C[C@@H]1CC(F)(F)CN1C(=O)CNC(=O)c1csc(Cc2ccc(F)cc2Cl)n1	95.9%	> 100000 nM	60 nM	–	–	–	–	–
C[C@@H](NC(=O)c1ccncc1)C(=O)N1CCC[C@H]1B(O)O	–	> 100000 nM	–	–	> 100000 nM	–	–	–
N#Cc1ccc(Cc2nc(C(=O)NCC(=O)N3CC(F)(F)C[C@H]3C#N)cs2)cc1	99.3%	> 100000 nM	–	3200 nM	–	–	–	–

Continued, in another order:

inhibition [1]	IC50 [2]	IC50 [3]	IC50 [4]	IC50 [8]	Compound	Activity [5]	inhibition [6]	inhibition [7]
99%	> 100000 nM	25 nM	–	–	CSc1ccc(Cc2nc(C(=O)NCC(=O)N3CC(F)(F)C[C@H]3C#N)cs2)cc1	–	–	–
98%	> 100000 nM	26 nM	–	–	COc1ccc(Cc2nc(C(=O)NCC(=O)N3CC(F)(F)C[C@H]3C#N)cs2)cc1	–	–	–
98.3%	18700 nM	28 nM	–	–	N#C[C@@H]1CC(F)(F)CN1C(=O)CNC(=O)c1csc(Cc2ccc(-n3cncn3)cc2)n1	–	–	–
–	44600 nM	24 nM	138 nM	–	N#Cc1ccc(SCc2nc(C(=O)NCC(=O)N3CC(F)(F)C[C@H]3C#N)cs2)cc1	–	–	–
–	76800 nM	9 nM	–	–	N#Cc1ccc(S(=O)(=O)Cc2nc(C(=O)NCC(=O)N3CC(F)(F)C[C@H]3C#N)cs2)cc1	–	–	–
86.3%	> 100000 nM	22 nM	–	–	N#C[C@@H]1CC(F)(F)CN1C(=O)CNC(=O)c1csc(Cc2ccc(OC(F)(F)F)cc2)n1	–	–	–
–	> 100000 nM	19 nM	–	–	N#C[C@@H]1CC(F)(F)CN1C(=O)CNC(=O)c1csc(CS(=O)(=O)c2ccc(Cl)c(Cl)c2)n1	–	–	–
–	> 100000 nM	11 nM	–	–	N#C[C@@H]1CC(F)(F)CN1C(=O)CNC(=O)c1csc(CSc2ccc(C(F)(F)F)cc2)n1	–	–	–
–	> 100000 nM	20 nM	–	–	Cc1ccc(S(=O)(=O)Cc2nc(C(=O)NCC(=O)N3CC(F)(F)C[C@H]3C#N)cs2)cc1	–	–	–
99%	> 100000 nM	2 nM	–	–	N#C[C@@H]1CC(F)(F)CN1C(=O)CNC(=O)c1csc(Cc2ccc(Cl)c(Cl)c2)n1	Dose-dependent effect	Dose-dependent effect	Active
98.8%	> 100000 nM	23 nM	–	–	N#C[C@@H]1CC(F)(F)CN1C(=O)CNC(=O)c1csc(Cc2ccc(-n3cccn3)cc2)n1	–	–	–
97.5%	52000 nM	35 nM	–	–	N#C[C@@H]1CC(F)(F)CN1C(=O)CNC(=O)c1csc(Cc2cccc(Br)c2)n1	–	–	–
100%	> 100000 nM	16 nM	–	–	N#C[C@@H]1CC(F)(F)CN1C(=O)CNC(=O)c1csc(Cc2ccc(Br)cc2)n1	–	–	–
–	> 100000 nM	5 nM	–	–	N#C[C@@H]1CC(F)(F)CN1C(=O)CNC(=O)c1csc(CS(=O)(=O)c2ccc(C(F)(F)F)cc2)n1	–	–	–
–	> 100000 nM	5 nM	–	–	Cc1ccc(SCc2nc(C(=O)NCC(=O)N3CC(F)(F)C[C@H]3C#N)cs2)cc1	–	–	–
98%	10100 nM	20 nM	–	–	CS(=O)(=O)c1ccc(Cc2nc(C(=O)NCC(=O)N3CC(F)(F)C[C@H]3C#N)cs2)cc1	–	–	–
98.6%	> 100000 nM	21 nM	–	–	N#C[C@@H]1CC(F)(F)CN1C(=O)CNC(=O)c1csc(Cc2ccc(Cl)cc2)n1	–	–	–
99.3%	> 100000 nM	4 nM	–	–	N#C[C@@H]1CC(F)(F)CN1C(=O)CNC(=O)c1csc(Cc2ccccc2-c2ccc3ccccc3c2)n1	–	–	–
98.7%	> 100000 nM	12 nM	–	–	N#Cc1ccc(-c2ccc(Cc3nc(C(=O)NCC(=O)N4CC(F)(F)C[C@H]4C#N)cs3)cc2)cc1	–	–	–
97.2%	> 100000 nM	1 nM	–	–	N#C[C@@H]1CC(F)(F)CN1C(=O)CNC(=O)c1csc(Cc2ccc(Cl)cc2Cl)n1	–	–	–
–	> 100000 nM	7 nM	–	–	N#Cc1ccc(OCc2nc(C(=O)NCC(=O)N3CC(F)(F)C[C@H]3C#N)cs2)cc1	–	–	–
–	> 100000 nM	35 nM	–	–	N#C[C@@H]1CC(F)(F)CN1C(=O)CNC(=O)c1csc(COc2ccc(Cl)c(Cl)c2)n1	–	–	–
